# Results: patent US20250177115A1, “COMBINATORIAL THERAPIES INCLUDING IMPLANTABLE DAMPING DEVICES AND THERAPEUTIC AGENTS FOR TREATING A CONDITION AND ASSOCIATED SYSTEMS AND METHODS OF USE” (THE BRAIN PROTECTION COMPANY PTY LTD, priority 2021, published 2025)
# Tested on: TAC mice
# Experiment: Cognition (Y Maze, exploratory behaviour)
# Type: in vivo
# Method: FIG. 24 is a dot plot showing the % alterations in a Y maze in mice with an absorbable suture versus a plain suture, with and without treatment according to some embodiments. Measurement of the number of alternations within the 3 arms of a Y-Maze according to the following formula: % alternation=(total alternations/(total entries−2)×100).
# Cognition (Y Maze—exploratory behaviour). Cognition was measured according to the number of behavior alterations within the three (3) arms of a Y Maze, as shown in FIGS. 23-24.
smiles,measurement,setting,value
"CCCCCCCCc1ccc(CCC(N)(CO)CO)cc1 [Fingolimod, fingolimod]",mean % alteration in a Y maze,"treated absorbable suture group, SEM=3.556, n=7",61.396%
same,mean % alteration in a Y maze,"treated plain suture group, SEM=2.644, n=12",70.296%
